Results: patent publication US20060035889A1, “Treatment for methamphetamine addiction and reduction of methamphetamine use using serotonin antagonists” (priority 2004, published 2006)

What was measured:
METH-sensitized rats = test: Reversal of METH-induced behavioral sensitization by 5-HT2A/2C antagonists (motor activity after acute METH challenge); assay type: in vivo, rat
Text: Automation of observational evaluations was accomplished using computerized small animal monitors (AccuScan Instr. Inc., Columbus, Ohio). […] One feature of drug-induced behavioral sensitization is heterogeneity of motor responses and the AccuScan monitors quantify numerous behavioral indices. This is a critical point for the motor profile is exquisitely related to METH dose, the drug history of the rat and observation time. After 3- or 31-days of withdrawal from repeated METH injections, rats were allowed to achieve baseline motor activity with a 30 min habituation period, challenged with 1 mg/kg sc METH and monitored for 90 min.
Multiple 5-HT2A/2C antagonists with differing pharmacological profiles were tested for their ability to ameliorate METH-induced behavioral sensitization when administered after sensitization has developed. […] The doses were selected based on the antagonists' ability to block 5-HT2A- and 5-HT2C-mediated activity and their pharmacokinetic profiles.

ventral pallidal neurons = test: Electrophysiology of ventral pallidal neurons, i.v. METH dose-response in chloral hydrate-anesthetized rats; assay type: in vivo, rat
Description: Based on the biochemical results and because the ventral pallidum contains one of the highest concentrations of 5-HT in the brain, electrophysiological evaluations of this region in rats behaviorally sensitized to METH were conducted (with a 5-day once daily treatment of 2.5 mg/kg). The acute challenge was intravenously administered METH (via a tail vein cannula) as previously used by T. C. Napier's lab ^e.g., [34] where the drug is given in a cumulative dosing fashion such that each dose, administered in 2 min-intervals, essentially doubles the previous dose. METH was tested using a range of 0.06-4.0 mg/kg in saline vehicle. […] Moreover, this approach establishes if systemic administration of METH, in doses that include those producing behavioral sensitization, are sufficient promote sensitized cellular responding and thus allows for direct comparisons of cellular responding to behavioral outcomes. After a 3-day withdrawal, the ability of intravenously administered METH or 1-(2,5-dimethoxy-4-iodophenyl)-2-aminopropane (DOI) to increase ventral pallidal cell firing was enhanced in chloral hydrate-anesthetized rats, as shown by a leftward shift in the dose-response curve with a […] and an increase in response efficacy for both agonists (FIG. 16) and this occurred without any changes in the portion of neurons showing a rate increase or decrease to the acute METH challenge.
Electrophysiological assessment of the ventral pallidum was also conducted 30 days after repeated METH. […] For each experiment, an i.v. METH dose-response curve (METH was tested using a range of 0.06-2.0 mg/kg in saline vehicle) was generated for one ventral pallidal neuron per rat at 30 days withdrawal from repeated METH. Based on the analysis of curves where there was an excitatory effect of i.v. METH on ventral pallidal neurons (171 animals), there was a diminished excitatory effect of i.v. METH in the ventral pallidum of rats that were pretreated with METH only. This is illustrated by both the curves and corresponding Emax data in FIG. 17. This decrease only at long-term withdrawal mirrors the reduction seen in pallidal pCREB only after 14, but not at 3 day withdrawal from repeated METH (see Example III).

α2 = details: read-out: receptor affinity (Ki) α2; cited from earlier work
α1 = details: read-out: receptor affinity (Ki) α1; cited from earlier work

CN1CCN2c3ncccc3Cc3ccccc3[C@@H]2C1 (racemic) [mirtazapine, 1,2,3,4,10,14b-hexahydro-2-methyl-pyrazino[2,1-a]pyrido[2,3-c]benzazepine]
vertical movement suppression seen in METH-pretreated rats (METH-sensitized rats; mirtazapine 5 mg/kg x 15 days): attenuation of the vertical movement suppression | decreases in total distance traveled and time spent ambulating induced by METH pretreatments (METH-sensitized rats; mirtazapine 5 mg/kg x 15 days, data not shown): attenuated the decreases | horizontal activity (METH-sensitized rats; mirtazapine 5 mg/kg x 15 days, first 60 min after acute METH challenge): slight attenuation | potentiation of METH-induced sensitization for any assessed behavior (METH-sensitized rats; mirtazapine daily 5 mg/kg x 15 days): did not potentiate | overall attenuation of METH-sensitized responses (METH-sensitized rats; mirtazapine daily 5 mg/kg x 15 days, M-F): greatest overall attenuation | mirtazapine+saline group vs saline+saline pretreated rats (METH-sensitized rats; mirtazapine daily 5 mg/kg x 15 days, saline-pretreated): did not differ | Emax of Firing Rate Increases of Acute Meth (ventral pallidal neurons; METH days 1-5, then antagonist, tested 31 days after last METH): 251% ± 21% (n = 5) | Emax of Firing Rate Increases of Acute Meth (ventral pallidal neurons; Sal days 1-5, then antagonist, tested 31 days after last injection): 240% ± 44% (n = 5) | effect of repeated METH on response of ventral pallidal neurons to acute METH challenge (ventral pallidal neurons; after 30 days withdrawal): reversal | Ki (α2): 65 nM | Ki (α1): 500 nM
